Laboratory results from US11478474B2, “2-(3′-(hydroxymethyl)-1-methyl-5-((5-(2-methyl-4-(oxetan-3-yl)piperazin-1-yl)pyridin-2-yl)amino)-6-oxo-1,6-dihydro-[3,4′-bipyridin]-2′-yl)-7,7-dimethyl-7,8-dihydro-2H-cyclopenta[4,5]pyrrolo[1,2-a]pyrazin-1(6H)-one as a BTK inhibitor” (HUTCHISON MEDIPHARMA LIMITED, priority 2020, dated 2022).

Tests used:
[1] = molecular target: phosphorylated BTK in Ramos cells (Homo sapiens (Human), UniProt Q06187); test: Determination of phosphorylated BTK in Ramos cells (BTK phospho-Y223 HTRF); type: cell-based; settings: anti-human IgM + hydrogen peroxide stimulation
Procedure, shortened: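 BTK Y223 phosphorylation measured by HTRF (665/615 nm) in lysates of Ramos cells. Cells were serum-starved 2 h, exposed to compound for 1 h (final 0.00018–3.0 μM, 0.3% DMSO), then stimulated 10 min with 10 μg/mL anti-IgM and 3.3 mM H2O2. IC50 derived from percent inhibition between unstimulated and stimulated controls.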

BTK recombinant protein = BTK recombinant protein (Homo sapiens (Human), UniProt Q06187); test: Determination of biochemical BTK (Z'-LYTE kinase assay)
Procedure, shortened: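 Human BTK recombinant kinase (3.32 nM final) was preincubated with compound for 30 min at 4 °C. Reaction ran 1 h at room temperature with Tyr01 FRET peptide (2 μM) and ATP (32 μM); development protease then added. Coumarin 445 nm/fluorescein 520 nm emission ratio (400 nm excitation) gave inhibition across 8 concentrations, 3000–1.37 nM.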

Chain of phosphorylated BTK in Ramos cells (Q06187 whole entry): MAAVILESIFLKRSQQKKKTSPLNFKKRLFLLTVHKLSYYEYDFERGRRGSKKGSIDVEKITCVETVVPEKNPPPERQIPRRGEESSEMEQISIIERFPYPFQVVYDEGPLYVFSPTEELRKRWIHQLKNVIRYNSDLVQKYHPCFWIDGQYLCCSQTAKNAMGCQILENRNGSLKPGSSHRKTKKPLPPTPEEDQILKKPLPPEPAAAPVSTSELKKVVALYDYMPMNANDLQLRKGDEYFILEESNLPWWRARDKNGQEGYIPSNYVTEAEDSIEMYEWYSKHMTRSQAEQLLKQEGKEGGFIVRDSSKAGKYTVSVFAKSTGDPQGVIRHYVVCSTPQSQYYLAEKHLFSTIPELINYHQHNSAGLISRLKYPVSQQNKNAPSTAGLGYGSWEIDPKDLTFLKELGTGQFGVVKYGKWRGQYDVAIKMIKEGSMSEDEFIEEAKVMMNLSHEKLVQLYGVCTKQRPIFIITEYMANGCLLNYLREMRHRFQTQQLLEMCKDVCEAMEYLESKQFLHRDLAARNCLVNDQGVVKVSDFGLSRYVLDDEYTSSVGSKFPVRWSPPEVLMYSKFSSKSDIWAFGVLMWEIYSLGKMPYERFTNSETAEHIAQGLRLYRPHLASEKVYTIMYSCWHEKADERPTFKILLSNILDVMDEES
Chain of BTK recombinant protein (Q06187 whole entry): as above

IC50 [1]	IC50 (BTK recombinant protein)	SMILES
8 nM	40 nM	Cn1cc(-c2ccnc(-n3ccn4c5c(cc4c3=O)CC(C)(C)C5)c2CO)cc(Nc2ccc(N3CCC4(CCOC4)CC3)cn2)c1=O [Compound 233]
5 nM	8 nM	Cn1cc(-c2ccnc(-n3ccn4c5c(cc4c3=O)CC(C)(C)C5)c2CO)cc(Nc2ccc(N[C@@H]3CC[C@@H](CO)OC3)cn2)c1=O [Compound 46]
12 nM	6 nM	Cn1cc(-c2ccnc(-n3ncn4c5c(cc4c3=O)CC(C)(C)C5)c2CO)cc(Nc2cc3n(n2)CCOC3)c1=O [Compound 156]
8 nM	11 nM	COCCN1C[C@H](C)N(c2ccc(Nc3cc(-c4ccnc(-n5ncn6c7c(cc6c5=O)CC(C)(C)C7)c4CO)cn(C)c3=O)nc2)C[C@H]1C [Compound 207]
2 nM	8 nM	COCCN1CCn2nc(Nc3cc(-c4ccnc(-n5ccn6c7c(cc6c5=O)CC(C)(C)C7)c4CO)cn(C)c3=O)cc2C1C (stereo not shown) [Compound 111]
4 nM	17 nM	CC[C@H]1CN(C2COC2)CCN1c1ccc(Nc2cc(-c3ccnc(-n4ccn5c6c(cc5c4=O)CC(C)(C)C6)c3CO)cn(C)c2=O)nc1 [Compound 91]
30 nM	17 nM	Cn1nc(-c2ccnc(-n3ccn4c5c(cc4c3=O)CC(C)(C)C5)c2CO)cc(Nc2cn(CCF)nn2)c1=O [Compound 32]
2 nM	12 nM	CN(c1ccc(Nc2cc(-c3ccnc(-n4ccn5c6c(cc5c4=O)CC(C)(C)C6)c3CO)cn(C)c2=O)nc1)C1COC1 [Compound 41]
4 nM	6 nM	C[C@@H]1c2cc(Nc3cc(-c4ccnc(-n5ccn6c7c(cc6c5=O)CC(C)(C)C7)c4CO)cn(C)c3=O)nn2CCN1C1COC1 [Compound 137]
16 nM	5 nM	COCCN1CCN(c2ccc(Nc3cc(-c4ccnc(-n5ncn6c7c(cc6c5=O)CC(C)(C)C7)c4CO)cn(C)c3=O)nc2)C(C)(C)C1 [Compound 220]
60 nM	51 nM	Cn1cc(-c2ccnc(-n3ccn4c5c(cc4c3=O)CCC5)c2CO)cc(Nc2cc3n(n2)CCN(C#N)C3)c1=O [Compound 142]
3 nM	24 nM	[2H]C([2H])([2H])n1cc(-c2ccnc(-n3ccn4c5c(cc4c3=O)CC(C)(C)C5)c2CO)cc(Nc2ccc(N3CCN(C4COC4)C[C@@H]3C)cn2)c1=O [Compound 39]
34 nM	8 nM	C[C@H]1CN(C2COC2)CCN1c1ccc(Nc2cc(-c3ccnc(-n4ccn5c6c(cc5c4=O)CC(C)(C)C6O)c3CO)cn(C)c2=O)nc1 (mixture of isomers) [Compound 182]
116 nM	216 nM	Cn1cc(Nc2cc(-c3ccnc(-n4ccn5c6c(cc5c4=O)CCC6)c3CO)cn(C)c2=O)nn1 [Compound 73]
6 nM	17 nM	COC1CN(c2ccc(Nc3cc(-c4ccnc(-n5ccn6c7c(cc6c5=O)CC(C)(C)C7)c4CO)cn(C)c3=O)nc2)C1 [Compound 35]
11 nM	3 nM	CC1Cc2cc3c(=O)n(-c4nccc(-c5cc(Nc6ccc(N7CCN(C8COC8)C[C@@H]7C)cn6)c(=O)n(C)c5)c4CO)ccn3c2C1 (mixture of isomers) [Compound 160]
4 nM	20 nM	Cn1cc(-c2ccnc(-n3ccn4c5c(cc4c3=O)CC(C)(C)C5)c2CO)cc(Nc2ccc(N3CCC4C3CCN4C3COC3)cn2)c1=O (stereo not shown) [Compound 109]
28 nM	80 nM	CC(C)n1cc(Nc2cc(-c3ccnc(-n4ccn5c6c(cc5c4=O)CC(C)(C)C6)c3CO)cn(C)c2=O)cn1 [Compound 173]
5 nM	8 nM	CC[C@H]1CN(C2COC2)CCN1c1ccc(Nc2cc(-c3ccnc(-n4ccn5c6c(c(F)c5c4=O)CCCC6)c3CO)cn(C)c2=O)nc1 [Compound 227]
25 nM	8 nM	C[C@H]1CN(C2COC2)CCN1c1ccc(Nc2cc(-c3ccnc(-n4ccn5c6c(cc5c4=O)CC(C)(C)[C@H]6O)c3CO)cn(C)c2=O)nc1 [Compound 199]
4 nM	24 nM	C[C@H]1CN2CCOCC2CN1c1ccc(Nc2cc(-c3ccnc(-n4ccn5c6c(cc5c4=O)CC(C)(C)C6)c3CO)cn(C)c2=O)nc1 (mixture of isomers) [Compound 236]
8 nM	8 nM	Cn1cc(-c2ccnc(-n3ccn4c5c(cc4c3=O)CC(C)(C)C5)c2CO)cc(Nc2ccc(N3CCN(C4COC4)CC3)nn2)c1=O [Compound 222]
4 nM	6 nM	Cn1nc(Nc2cc(-c3ccnc(-n4ccn5c6c(cc5c4=O)CC(C)(C)C6)c3CO)cn(C)c2=O)cc1C(=O)N1CCOCC1 [Compound 99]
10 nM	12 nM	Cn1cc(-c2ccnc(-n3ccn4c5c(cc4c3=O)CC(C)(C)C5)c2CO)cc(Nc2ccc(N3CCC4(CC3)COC4)cn2)c1=O [Compound 229]
20 nM	17 nM	CCn1cc(-c2ccnc(-n3ncn4c5c(cc4c3=O)CC(C)(C)C5)c2CO)cc(Nc2ccc(N3CCN(C4COC4)C[C@@H]3C)cn2)c1=O [Compound 211]
11 nM	4 nM	COCC(C)N1CCN(c2ccc(Nc3cc(-c4ccnc(-n5ncn6c7c(cc6c5=O)CC(C)(C)C7)c4CO)cn(C)c3=O)nc2)[C@@H](C)C1 (mixture of isomers) [Compound 219]
2 nM	4 nM	C[C@@H]1CN(c2ccc(Nc3cc(-c4ccnc(-n5ccn6c(c(F)c7cc(F)ccc76)c5=O)c4CO)cn(C)c3=O)nc2)[C@@H](C)CN1C1COC1 [Compound 61]
51 nM	31 nM	CCn1cc(-c2ccnc(-n3ccn4c5c(cc4c3=O)CC(C)(C)C5)c2CO)cc(Nc2ccc(N3C[C@@H](C)N(C4COC4)C[C@@H]3C)cn2)c1=O [Compound 215]
2 nM	2 nM	CC(C)n1cc(Nc2cc(-c3ccnc(-n4ccn5c6c(cc5c4=O)CC(C)(C)C6)c3CO)cn(C)c2=O)nn1 [Compound 6]
